Test results reported in patent publication US5461035A, “Short peptides with insulin activity” (priority 1990, dated 1995).
Residues, ends and D or L forms follow the SMILES beside them.

Assays:
Balb-C mice = test: Blood glucose profile in mice; format: in vivo; settings: intravenous
Description: Female Charles River Wiga Balb-C mice weighing 17 to 21 g (about 30 days old) receive a standard diet. The mice receive no food for 16 hours before the start of the experiment. 5 animals in each experimental group receive intravenous administration of an aqueous solution (pH 6) of the compound from Example 4 (octapeptide). Volume administered 0.3 ml/animal.
The average for each experimental group is indicated in each case.

Rat lipocytes [1] = test: Glucose transport, 2-deoxy-D-[1-3H]-glucose, rat lipocytes; format: cell-based; settings: glucose 0.2 mM
Description: Epididymal adipose tissue (Wistar rat, 160-180 g, no feed restriction) is digested with collagenase, and the resulting single lipocytes are washed several times by flotation. Lipocytes and pieces of diaphragm are prepared as in Example 5. The following tests measure exclusively the specific glucose transport which can be stimulated by insulin (facilitated diffusion) through the plasma membrane by means of glucose carriers, including the insulin signal-transmission cascade. Any effect of glucose metabolism on glucose transport is ruled out by using the non-metabolizable glucose analog. a) Rat lipocytes are incubated in the presence or absence of insulin or peptide with 2-deoxy-D-[1-^3 H]-glucose (final concentration of D-glucose 0.2 mM) and L-[1-^14 C]-glucose (not transportable). To determine the radioactivity ([^3 H] and [^14 C]) the cells are separated from the medium by centrifugation through an oil layer. The specific stereoselective glucose transport is calculated as the difference between the total cell-bound radioactivity ([^3 H]-glucose) and the associated radioactivity due to diffusion and non-specific effects ([C]-glucose).

Pieces of diaphragm [2] = test: Glucose transport, 2-deoxy-D-[1-3H]-glucose, pieces of diaphragm; format: cell-based, rat; settings: glucose 0.1 mM
Description: (§1) Preparation of pieces of diaphragm from rats: small pieces of tissue (5 mm diameter) are punched out of hemidiaphragms (Wistar rat, 60-70 g, no feed restriction) washed several times.
Lipocytes and pieces of diaphragm are prepared as in Example 5. The following tests measure exclusively the specific glucose transport which can be stimulated by insulin (facilitated diffusion) through the plasma membrane by means of glucose carriers, including the insulin signal-transmission cascade. Any effect of glucose metabolism on glucose transport is ruled out by using the non-metabolizable glucose analog.
b) Pieces of diaphragm are incubated in the presence or absence of insulin or peptide with 2-deoxy-D-[1-^3 H]-glucose (final concentration of D-glucose 0.1 mM) and L-[1-^14 C]-glucose. The pieces of tissue are separated from the medium by rapid filtration through glass fiber filters and are thoroughly washed. The radioactivity is measured in an alkaline extract.

Pieces of diaphragm [3] = test: Glucose uptake, D-[U-14C]-glucose, pieces of diaphragm; format: cell-based, rat; settings: D-glucose 75 μM
Description: (§2) The biological activity of the peptides according to the invention, of the formula I and II, is determined using lipocytes and pieces of diaphragm obtained by dissection from rats. The term tripeptide means Tyr Cys Asn-OH and hexapeptide means acetyl-Leu Glu Asn Tyr Cys Asn-OH. The term "baseline" means the activity without stimulation, insulin means human insulin and dpm means radioactive disintegrations per minute. The term peptid denotes peptides having insulin activity according to the present invention. Rat lipocytes were prepared as follows:
as §1
(§3) The two following tests measure the glucose uptake which can be stimulated by insulin and which requires the functional insulin signal-transmission cascade and glucose transport, irrespective of whether glucose is metabolized by oxidation (glycolysis, pentose phosphate pathway) or not by oxidation. The conversion into lipids, glycogen or membrane-impermeable intermediates (glucose 6-phosphate), but not the production of lactate, is followed.
b) Pieces of diaphragm are incubated in the presence or absence of insulin or peptide with D-[U-^14 C]-glucose (final concentration of D-glucose 75 μM). The medium is aspirated out. The pieces of tissue are washed several times and subsequently solubilized by alkali treatment for the determination of radioactivity.

Rat lipocytes [4] = test: Glucose uptake, D-[U-14C]-glucose, rat lipocytes; format: cell-based; settings: D-glucose 22 μM
Description: as §2
Epididymal adipose tissue (Wistar rat, 160-180 g, no feed restriction) is digested with collagenase, and the resulting single lipocytes are washed several times by flotation.
as §3
a) Rat lipocytes are incubated in the presence or absence of insulin or peptide with D-[U-^14 C]-glucose (final concentration of D-glucose 22 μM). The cells are separated from the medium by centrifugation through a silicone oil layer and are reisolated, and the cell-associated radioactivity is determined.

Rat lipocytes [5] = test: Esterification in vitro of glycerol 3-phosphate in saponin-permeabilized lipocytes; format: cell-based
Description: This test measures the esterification of glycerol 3-phosphate which can be stimulated by insulin in lipid products (triglycerides, phospholipids). The enzymes of lipid synthesis (for example acyl-CoA: L-glycerol 3-phosphate acyltransferase) are involved in this, including a functional insulin signal-transmission cascade. […] The incubation is continued after addition of L-[U-^14 C]-glycerol 3-phosphate. Toluene-soluble scintillation cocktail is added and the lipid is separated from the aqueous phase by centrifugation. The toluene phase containing the lipid is removed and its radioactivity is determined.

Rat lipocytes [6] = test: Lipogenesis in trypsin-treated rat lipocytes (insulin receptor inactivated); format: cell-based
Description: Rat lipocytes from Example 5 are treated with low concentrations of trypsin to inactivate the insulin receptor by proteolysis. After addition of protease inhibitors, the cells are washed twice by flotation, and the incubation is continued at 37° C. for 15 min. These cells are then used for the test of stimulation of lipogenesis by the peptides. […] This means that this test measures stimulation of lipogenesis owing to interventions in the insulin signal-transmission cascade after receptor binding of insulin.

H-Tyr(Bu^t)-Gln-Leu-Glu(OBu^t)-Asn-Tyr(Bu^t)-Cys(Trt-Asn-Obu^t.HBr [Octapeptide]
Blood glucose level, percentage difference to control group (Balb-C mice; 500 μg/animal, 20 minutes): -2% | Blood glucose level, percentage difference to control group (Balb-C mice; 500 μg/animal, 40 minutes): -5% | Blood glucose level, percentage difference to control group (Balb-C mice; 500 μg/animal, 60 minutes): -13% | Blood glucose level, percentage difference to control group (Balb-C mice; 500 μg/animal, 75 minutes): -21% | Blood glucose level, percentage difference to control group (Balb-C mice; 500 μg/animal, 90 minutes): -21% | Blood glucose level, percentage difference to control group (Balb-C mice; 1000 μg/animal, 20 minutes): -31% | Blood glucose level, percentage difference to control group (Balb-C mice; 1000 μg/animal, 40 minutes): -19% | Blood glucose level, percentage difference to control group (Balb-C mice; 1000 μg/animal, 60 minutes): -23% | Blood glucose level, percentage difference to control group (Balb-C mice; 1000 μg/animal, 75 minutes): -24% | Blood glucose level, percentage difference to control group (Balb-C mice; 1000 μg/animal, 90 minutes): -19%

Ac-LENYCN-OH [Hexapeptide, Acetyl-Leu-Glu-Asn-Tyr-Cys-Asn-OH]
Glucose transport (Rat lipocytes [1]; peptide 0.1 Mm): 2218 dpm | Glucose transport (Rat lipocytes [1]; peptide 0.5 Mm): 2842 dpm | Glucose transport (Rat lipocytes [1]; peptide 1 Mm): 3922 dpm | Glucose transport (Pieces of diaphragm [2]; peptide 0.1 Mm): 8450 dpm | Glucose transport (Pieces of diaphragm [2]; peptide 0.5 Mm): 8928 dpm | Glucose transport (Pieces of diaphragm [2]; peptide 1 Mm): 9676 dpm | Glucose uptake (Pieces of diaphragm [3]; peptide 0.1 Mm): 7429 dpm | Glucose uptake (Pieces of diaphragm [3]; peptide 0.5 Mm): 7752 dpm | Glucose uptake (Pieces of diaphragm [3]; peptide 1 Mm): 8597 dpm | Glucose uptake (Rat lipocytes [4]; peptide 0.1 Mm): 1488 dpm | Glucose uptake (Rat lipocytes [4]; peptide 0.5 Mm): 1917 dpm | Glucose uptake (Rat lipocytes [4]; peptide 1 Mm): 4218 dpm

NC(=O)C[C@H](NC(=O)[C@H](CS)NC(=O)[C@@H](N)Cc1ccc(O)cc1)C(=O)O [Tripeptide, H-Tyr-Cys-Asn-OH] (H-Tyr-Cys-Asn-OH)
Glucose transport (Rat lipocytes [1]; peptide 0.1 Mm): 2289 dpm | Glucose transport (Rat lipocytes [1]; peptide 0.5 Mm): 3055 dpm | Glucose transport (Rat lipocytes [1]; peptide 1 Mm): 5781 dpm | Esterification with lipocytes (Rat lipocytes [5]; peptide 0.5 mM): 4422 dpm | Esterification with lipocytes (Rat lipocytes [5]; peptide 0.1 Mm): 3710 dpm | Esterification with lipocytes (Rat lipocytes [5]; peptide 1 Mm): 5398 dpm | Lipogenesis (Rat lipocytes [6]; peptide 0.5 mM): 4145 dpm | Lipogenesis (Rat lipocytes [6]; peptide 0.1 Mm): 3250 dpm | Lipogenesis (Rat lipocytes [6]; peptide 1 Mm): 5072 dpm | Glucose transport (Pieces of diaphragm [2]; peptide 0.1 Mm): 8836 dpm | Glucose transport (Pieces of diaphragm [2]; peptide 0.5 Mm): 9822 dpm | Glucose transport (Pieces of diaphragm [2]; peptide 1 Mm): 11252 dpm | Glucose uptake (Pieces of diaphragm [3]; peptide 0.1 Mm): 7591 dpm | Glucose uptake (Pieces of diaphragm [3]; peptide 0.5 Mm): 8540 dpm | Glucose uptake (Pieces of diaphragm [3]; peptide 1 Mm): 11588 dpm | Glucose uptake (Rat lipocytes [4]; peptide 0.1 Mm): 1838 dpm | Glucose uptake (Rat lipocytes [4]; peptide 0.5 Mm): 2947 dpm | Glucose uptake (Rat lipocytes [4]; peptide 1 Mm): 6533 dpm

Insulin: insulin means human insulin
Glucose transport (Rat lipocytes [1]; insulin 0.5 ng): 4851 dpm | Glucose transport (Rat lipocytes [1]; insulin 5 ng): 20342 dpm | Esterification with lipocytes (Rat lipocytes [5]; insulin 5 ng): 3640 dpm | Lipogenesis (Rat lipocytes [6]; insulin 5 ng): 3087 dpm | Glucose transport (Pieces of diaphragm [2]; insulin 0.5 ng): 10828 dpm | Glucose transport (Pieces of diaphragm [2]; insulin 5 ng): 17750 dpm | Glucose uptake (Pieces of diaphragm [3]; insulin 0.5 ng): 10055 dpm | Glucose uptake (Pieces of diaphragm [3]; insulin 5 ng): 20841 dpm | Glucose uptake (Rat lipocytes [4]; insulin 0.5 ng): 4379 dpm | Glucose uptake (Rat lipocytes [4]; insulin 5 ng): 26312 dpm
